Measurements reported in patent US20190119200A1, “TERTIARY AMIDES AND METHOD OF USE” (AbbVie Inc., priority 2016, published 2019).

Assays:
Assay type in all cases: cell-based
[1] = test system: LPA-induced MCP-1 in NRK-49F cells; assay: LPA-induced MCP-1 AlphaLISA assay; settings: Rattus norvegicus, final LPA 10 μM, 7 hours; for Emax: read-out: Maximum Inhibition
Outline: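 NRK-49F rat fibroblasts, serum-starved overnight, pretreated with compound for 30 min at 37 °C (1% DMSO final), then stimulated with 10 μM LPA final. MCP-1 in the supernatant was measured by mouse/rat CCL2 AlphaLISA. IC50 values came from four-parameter logistic fits of the ratio data.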

[2] = target: T1, LPAR1 (Homo sapiens, UniProt Q92633); assay: LPAR1 FLIPR Assay; settings: U2OS cells stably expressing LPAR1, LPA (EC80), Calcium 6 FLIPR dye; for Emax: read-out: Maximum Inhibition
T1 construct: host or cells: U2OS
Outline: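 U2OS cells stably expressing LPAR1 were loaded with Calcium 6 dye for 2 h at 37° C, preincubated 3 min with compound (11-point 3-fold series), then stimulated with LPA at EC80. Fluorescence at 515-575 nm was recorded by FLIPR; IC50 came from four-parameter logistic fits of ratio data.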

[3] = target: T1, LPAR1; assay: LPAR1 Arrestin Assay (arrestin reporter assay); settings: U2OS cells stably expressing the LPAR1 receptor, 200 nM 18:1 LPA (EC80); for Emax: read-out: Maximum Inhibition
Description: One day prior to the experiment, frozen U2OS cells stably expressing the LPAR1 receptor (Life Technologies, Grand Island, N.Y., #K1519A) were thawed, centrifuged at 1,000 rpm for 5 minutes to remove DMSO, and resuspended in FreeStyle™ media (Gibco, Grand Island, N.Y.). Forty microliters of cells were plated into PDL-coated 384-well plates (Greiner Bio-One, Monroe, N.C.) at 10,000 cells/well, and then the plates were incubated overnight in humidified 5% CO2 at 37° C. Test compounds were dissolved in DMSO, and 12-point, 1:3 dilution CRCs were prepared in duplicate; daughter plates were prepared by aliquoting 0.8 μL/well of test compound dilutions into 384-well plates. On the day of the assay, the daughter plates were diluted to 6× stocks using HEPES-buffered HBSS, then 10 μL of 6× test compounds were added to the cells, and the plates were incubated at 37° C. for one hour. After this 1 hour incubation, 10 μL of a 6× stock of the LPAR1 agonist, 18:1 LPA (Avanti Polar Lipids, Alabaster, Ala.), was prepared in HEPES-buffered HBSS+0.1% fatty acid-free BSA (Sigma, St. Louis, Mo.). The 6×LPA was added to all wells for a final concentration of 200 nM, which corresponds to the 18:1 LPA EC80 in this arrestin assay. The final DMSO concentration in the assay plate was 0.1%, and the final BSA concentration was 0.02%. After addition of LPA to all wells, the assay plates were incubated in humidified 5% CO2 at 37° C. for five hours. During the incubation period, 6× dye from the LiveBLAzer™-FRET B/G with CCF4-AM kit (Life Technologies, Grand Island, N.Y.) was prepared according to manufacturers' instructions. At the end of the 5 hour compound incubation, 10 μL of 6× dye was added to each well, and the assay plate was incubated for two hours in the dark at room temperature. Throughout the assay procedure, all volume additions were performed with a Biomek® NX liquid handler (Beckman Coulter, Indianapolis, Ind.). After the 2 hour dye-load, fluorescence was measured on an EnVision® Multilabel Plate Reader (Perkin Elmer, Waltham, Mass.) with an excitation filter at 409/20 nm and emission filters at 460/40 nm and 530/30 nm. Data processing was performed as recommended by the LiveBLAzer™-FRET B/G with CCF4-AM kit manual; all test compound CRCs were performed in duplicate with n≥3.

T1 sequence (Q92633 whole entry): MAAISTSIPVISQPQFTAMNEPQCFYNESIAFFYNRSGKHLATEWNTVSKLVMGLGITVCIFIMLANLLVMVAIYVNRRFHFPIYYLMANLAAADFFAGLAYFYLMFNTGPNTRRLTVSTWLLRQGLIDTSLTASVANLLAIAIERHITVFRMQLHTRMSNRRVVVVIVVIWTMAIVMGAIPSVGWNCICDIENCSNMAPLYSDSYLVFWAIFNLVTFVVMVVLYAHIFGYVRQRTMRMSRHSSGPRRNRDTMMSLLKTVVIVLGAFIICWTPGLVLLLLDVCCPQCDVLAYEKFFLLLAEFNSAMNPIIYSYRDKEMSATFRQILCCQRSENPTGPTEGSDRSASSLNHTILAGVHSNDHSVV

Row | Structure (SMILES) | IC50 [1] | IC50 [2] | Emax [2] | IC50 [3] | Emax [3] | Emax [1]
1 | COc1cc(C(=O)N(CCCCC(=O)O)CCCc2ccccc2)c(F)c(OC)c1F [Example 30, 5-[(2,4-difluoro-3,5-dimethoxybenzoyl)(3-phenylpropyl)amino]pentanoic Acid] | 743 nM | 42 nM | 96% | 618 nM | 118% | 74%
2 | COc1cc(C(=O)N(CCCCC(=O)O)CCCc2ccc(C)o2)cc(OC)c1C1CC1 [Example 178, 5-{(4-cyclopropyl-3,5-dimethoxybenzoyl)[3-(5-methylfuran-2-yl)propyl]amino}pentanoic Acid] | 1970 nM | 45 nM | 84% | 1560 nM | 122% | 77%
3 | COc1cc(OC)c(Cl)c(C(=O)N(CCCCC(=O)O)CCCc2ccccc2)c1 [Example 39, 5-[(2-chloro-3,5-dimethoxybenzoyl)(3-phenylpropyl)amino]pentanoic Acid] | 318 nM | 54 nM | 96% | 1210 nM | 99% | 80%
4 | COc1cc(OC)cc(C(=O)N(CCCCC(=O)O)CCCc2cccc(F)c2)c1 [Example 90, 5-{(3,5-dimethoxybenzoyl)[3-(3-fluorophenyl)propyl]amino}pentanoic Acid] | 2500 nM | 37 nM | 88% | 675 nM | 108% | 76%
5 | COc1ccc(C2(C(=O)N(CCCCC(=O)O)CCCc3ccccc3)CC2)nc1 [Example 63, 5-{[1-(5-methoxypyridin-2-yl)cyclopropane-1-carbonyl](3-phenylpropyl)amino}pentanoic Acid] | 5530 nM | 80 nM | 87% | 3070 nM | 118% | 51%
6 | COc1cc(OC)cc(C(=O)N(CCCCC(=O)O)CCCc2ccccc2F)c1 [Example 134, 5-{(3,5-dimethoxybenzoyl)[3-(2-fluorophenyl)propyl]amino}pentanoic Acid] | > 10000 nM | 74 nM | 77% | 2240 nM | 125% | 37%
7 | COc1cc(C(=O)N(CCCCC(=O)O)CCCc2ccccc2)cc(OC)n1 [Example 48, 5-[(2,6-dimethoxypyridine-4-carbonyl)(3-phenylpropyl)amino]pentanoic Acid] | > 4770 nM | 52 nM | 81% | 3320 nM | 113% | 62%
8 | COc1cc(C(=O)N(CCCc2ccc(F)cc2F)CCOCC(=O)O)cc(OC)c1C [Example 130, (2-{[3-(2,4-difluorophenyl)propyl](3,5-dimethoxy-4-methylbenzoyl)amino}ethoxy)acetic Acid] | 1790 nM | 41 nM | 83% | 760 nM | 119% | 83%
9 | COc1cc(OC)c(F)c(C(=O)N(CCCCC(=O)O)CCCc2ccccc2)c1 [Example 58, 5-[(2-fluoro-3,5-dimethoxybenzoyl)(3-phenylpropyl)amino]pentanoic Acid] | 2390 nM | 32 nM | 93% | 636 nM | 112% | 78%
10 | COc1cc(C(=O)N(CCCCC(=O)O)CCCc2ccc(C)o2)c(F)c(OC)c1F [Example 175, 5-{(2,4-difluoro-3,5-dimethoxybenzoyl)[3-(5-methylfuran-2-yl)propyl]amino}pentanoic Acid] | 3940 nM | 48 nM | 73% | 5680 nM | 119% | 67%
11 | COc1ccc(C2(C(=O)N(CCCCC(=O)O)CCCc3ccccc3)COC2)cc1 [Example 89, 5-{[3-(4-methoxyphenyl)oxetane-3-carbonyl](3-phenylpropyl)amino}pentanoic Acid] | 4700 nM | 36 nM | 95% | 445 nM | 114% | 65%
12 | COc1cc(C(=O)N(CCCc2ccc(C)o2)CCCC(C)(O)C(=O)O)cc(OC)c1C (stereo not drawn) [Example 174, 5-{(3,5-dimethoxy-4-methylbenzoyl)[3-(5-methylfuran-2-yl)propyl]amino}-2-hydroxy-2-methylpentanoic Acid] | 5430 nM | 33 nM | 73% | 991 nM | 118% | 65%
13 | COc1cc(C(=O)N(CCCCC(=O)O)CCCc2c(F)cccc2F)cc(OC)c1C [Example 147, 5-{[3-(2,6-difluorophenyl)propyl](3,5-dimethoxy-4-methylbenzoyl)amino}pentanoic Acid] | 665 nM | 31 nM | 93% | 178 nM | 122% | 86%

Second part, led by results:

Row | IC50 [1] | IC50 [2] | Emax [2] | IC50 [3] | Emax [3] | Structure (SMILES) | Emax [1]
14 | 3150 nM | 46 nM | 78% | 464 nM | 125% | COc1cc(C(=O)N(CCCc2ccc(F)cc2)CCOCC(=O)O)cc(OC)c1C [Example 139, (2-{(3,5-dimethoxy-4-methylbenzoyl)[3-(4-fluorophenyl)propyl]amino}ethoxy)acetic Acid] | 72%
15 | 5560 nM | 131 nM | 66% | 1550 nM | 99% | COc1cc(C(=O)N(CCCc2ccccc2)CCOC(=O)NS(C)(=O)=O)cc(OC)c1C [Example 184, 2-[(3,5-dimethoxy-4-methylbenzoyl)(3-phenylpropyl)amino]ethyl (methanesulfonyl)carbamate] | 58%
16 | 5540 nM | 51 nM | 91% | 494 nM | 108% | COc1cc(C(=O)N(CCCc2ccccc2)CC(=O)NC(C)(C)C(=O)O)cc(OC)c1C [Example 45, N-(3,5-dimethoxy-4-methylbenzoyl)-N-(3-phenylpropyl)glycyl-2-methylalanine] | 71%
17 | 7850 nM | 67 nM | 82% | 3250 nM | 112% | COc1cc(C(=O)N(CCCCC(=O)O)CCCc2ccccc2)cc(OC)c1F [Example 99, 5-[(4-fluoro-3,5-dimethoxybenzoyl)(3-phenylpropyl)amino]pentanoic Acid] | 56%
18 | 78 nM | 33 nM | 100% | 11 nM | 103% | COc1cc(C(=O)N(CCCc2ccccc2)CCC[C@H](C)C(=O)O)cc(OC)c1C (single isomer, unassigned) [Example 78] | 95%
19 | 1630 nM | 37 nM | 79% | 665 nM | 114% | COc1cc(C(=O)N(CCCc2ccccc2)CCCC(O)C(=O)O)cc(OC)c1C (stereo not drawn) [Example 151, 5-[(3,5-dimethoxy-4-methylbenzoyl)(3-phenylpropyl)amino]-2-hydroxypentanoic Acid] | 79%
